# US8414938B2, “Schisandrae fructus extracts for inhibition or prevention of H1N1 influenza virus infection and its application thereof” (National Defense Medical Center, priority 2011, dated 2013)
# Like-named read-outs stand apart in the source and are kept apart here.
# Key:
# influenza virus H1N1 = assay: organism not typed; assay type: cell-based; settings: for MIC: read-out: MIC, H1N1
# MDCK cells [1] = assay: MTT cell survival of MDCK cells treated with sample alone (D group, pharmacotoxicity)
# MDCK cells [2] = settings: dog
# [3] = 6.25 μg/ml, compound and H1N1 at the same time, MDCK (Table 10)
# [4] = 10 μg/ml, compound and H1N1 0.01 MOI at the same time, MDCK, 48 hrs (Table 9)
# [5] = 12.5 μg/ml, compound and H1N1 at the same time, MDCK (Table 10)
# [6] = 25 μg/ml, compound and H1N1 at the same time, MDCK (Table 10)
# [7] = 50 μg/ml, compound and H1N1 0.01 MOI at the same time, MDCK, 48 hrs (Table 9)
# [8] = 50 μg/ml, compound and H1N1 at the same time, MDCK (Table 10)
# [9] = 75 μg/ml, compound and H1N1 at the same time, MDCK (Table 10)
# [10] = 100 μg/ml, compound and H1N1 at the same time, MDCK (Table 10)
# [11] = influenza virus H1N1, MDCK cells, MTT
SMILES,MIC (influenza virus H1N1),"cell survival ratio, D + V (influenza virus H1N1; [3])","cell survival ratio, D + V (influenza virus H1N1; [4])","cell survival ratio, D + V (influenza virus H1N1; [5])","cell survival ratio, D + V (influenza virus H1N1; [6])","cell survival ratio, D + V (influenza virus H1N1; [7])","cell survival ratio, D + V (influenza virus H1N1; [8])","cell survival ratio, D + V (influenza virus H1N1; [9])","cell survival ratio, D + V (influenza virus H1N1; [10])","cell survival ratio, D (MDCK cells [1]; 12.5 μg/ml)",pharmaceutical toxicity / cytotoxicity (MDCK cells [2]),"MIC, H1N1 (influenza virus H1N1; [11])",MIC (influenza virus H1N1; [11]),"cell survival ratio, D (MDCK cells [1]; 6.25 μg/ml)"
"NC(=O)c1ncn([C@@H]2O[C@H](CO)[C@@H](O)[C@H]2O)n1 [Ribavirin, ribavirin, reference compound]",3.12 µg/mL,,,,,,,,,,,,,
COc1cc([C@@H]2c3cc(OC)c(O)cc3C(=O)[C@@H](C)[C@H]2C)ccc1O [Wulignan A1],12.5 µg/mL,++ (>50% but ≦75%),++ (>50% but ≦75%),+++ (>75% but ≦100%),++++ (>100%),++++ (>100%),++++ (>100%),++++ (>100%),++++ (>100%),++++ (key: +/−: cell survival ratio ≦25%; +: >25% but ≦50%; ++: >50% but ≦75%; +++: >75% but ≦100%; ++++: >100%),more than 100 μg/ml,,,
"C/C=C(\C)C(=O)O[C@H]1c2cc(OC)c(OC)c(OC)c2-c2c(cc3c(c2OC)OCO3)C[C@H](C)[C@@]1(C)O (atropisomer, axis not shown) [Tigloylgomisin P]",,+/− (cell survival ratio of ≦25%),+/− (cell survival ratio of ≦25%),+/− (cell survival ratio of ≦25%),+ (>25% but ≦50%),+++ (>75% but ≦100%),++++ (>100%),++++ (>100%),++++ (>100%),,more than 100 μg/ml,50.0 µg/mL,50 µg/mL,
COc1cc2c(cc1O)C(=O)[C@@H](C)[C@@H](C)[C@@H]2c1ccc(OC)c(OC)c1 [Schisandrone],,+ (>25% but ≦50%),++ (>50% but ≦75%),++++ (>100%),++++ (>100%),++++ (>100%),++++ (>100%),++++ (>100%),+/− (cell survival ratio of ≦25%),,100 µg/mL,,12.5 µg/mL,++++ (key: +/−: cell survival ratio ≦25%; +: >25% but ≦50%; ++: >50% but ≦75%; +++: >75% but ≦100%; ++++: >100%)
"COc1cc2c(c(OC)c1OC)-c1c(cc3c(c1OC)OCO3)C[C@H](C)[C@@](C)(O)[C@H]2OC(=O)c1ccccc1 (atropisomer, axis not shown) [Benzoylgomisin P]",12.5 µg/mL,++ (>50% but ≦75%),+++ (>75% but ≦100%),,++++ (>100%),++++ (>100%),++++ (>100%),++++ (>100%),++++ (>100%),++++ (key: +/−: cell survival ratio ≦25%; +: >25% but ≦50%; ++: >50% but ≦75%; +++: >75% but ≦100%; ++++: >100%),more than 100 μg/ml,,,
COc1cc([C@@H]2c3cc(OC)c(O)cc3C(=O)[C@H](C)[C@H]2C)ccc1O [Epiwulignan A1],,+ (>25% but ≦50%),+ (>25% but ≦50%),,+++ (>75% but ≦100%),++++ (>100%),++++ (>100%),++++ (>100%),++++ (>100%),++++ (key: +/−: cell survival ratio ≦25%; +: >25% but ≦50%; ++: >50% but ≦75%; +++: >75% but ≦100%; ++++: >100%),more than 100 μg/ml,25.0 µg/mL,25 µg/mL,
